According to the NIST ThermoML archive (doi:10.1016/j.tca.2016.12.010):
Numbers after ± are expanded uncertainties.

Columns and labels:
[1] = xn = mol fraction of the nth substance listed; conditions: 94.9 kPa, Liquid, Vibrating tube method, x2 = 0
[2] = refractive index (Na D-line) (dimensionless); xn = mol fraction of the nth substance listed; conditions: 94.9 kPa, Liquid, (Schmidt +Haensch) refractometer (Model DSR lambda), x2 = 0
[3] = Liquid; for mass density: 94.9 kPa, Vibrating tube method; for vapor or sublimation pressure: Ebulliometric method (Recirculating still)
[4] = refractive index (Na D-line) (dimensionless); conditions: 94.9 kPa, Liquid, (Schmidt +Haensch) refractometer (Model DSR lambda)

| Compound | mass density ([1]; 293.15 K) | mass density ([1]; 303.15 K) | mass density ([1]; 313.15 K) | mass density ([1]; 323.15 K) | mass density ([1]; 333.15 K) | refractive index ([2]; 293.15 K) | refractive index ([2]; 303.15 K) | refractive index ([2]; 313.15 K) | refractive index ([2]; 323.15 K) | refractive index ([2]; 333.15 K) | mass density ([3]; 293.15 K) | mass density ([3]; 303.15 K) | mass density ([3]; 313.15 K) | mass density ([3]; 323.15 K) | mass density ([3]; 333.15 K) | refractive index ([4]; 293.15 K) | refractive index ([4]; 303.15 K) | refractive index ([4]; 313.15 K) | refractive index ([4]; 323.15 K) | refractive index ([4]; 333.15 K) | other results |
| --- | --- | --- | --- | --- | --- | --- | --- | --- | --- | --- | --- | --- | --- | --- | --- | --- | --- | --- | --- | --- | --- |
| CCCCCCCCCCO [decan-1-ol] + C1COCCN1 | 830.01 ± 4 kg/m3 | 823.54 ± 4 kg/m3 | 816.13 ± 4 kg/m3 | 808.84 ± 4 kg/m3 | 801.43 ± 4 kg/m3 | 1.43711 ± 0.0024 | 1.43332 ± 0.0024 | 1.42949 ± 0.0024 | 1.42564 ± 0.0024 | 1.42189 ± 0.0024 | – | – | – | – | – | – | – | – | – | – | – |
| C1COCCN1 [tetrahydro-1,4-oxazine] | – | – | – | – | – | – | – | – | – | – | 999.54 ± 4 kg/m3 | 989.89 ± 4 kg/m3 | 979.82 ± 4 kg/m3 | 969.78 ± 4 kg/m3 | 959.74 ± 4 kg/m3 | 1.45453 ± 0.0024 | 1.45031 ± 0.0024 | 1.44574 ± 0.0024 | 1.44113 ± 0.0024 | 1.43562 ± 0.0024 | vapor or sublimation pressure ([3]; 343.91 K): 13.32 ± 1 kPa; vapor or sublimation pressure ([3]; 372.25 K): 39.99 ± 1 kPa; vapor or sublimation pressure ([3]; 387.57 K): 66.66 ± 1 kPa; vapor or sublimation pressure ([3]; 398.92 K): 94.9 ± 1 kPa |
| CCCCCCCCCCO [decan-1-ol] | – | – | – | – | – | – | – | – | – | – | 830.01 ± 4 kg/m3 | 823.54 ± 4 kg/m3 | 816.13 ± 4 kg/m3 | 808.84 ± 4 kg/m3 | 801.43 ± 4 kg/m3 | 1.43711 ± 0.0024 | 1.43332 ± 0.0024 | 1.42949 ± 0.0024 | 1.42564 ± 0.0024 | 1.42189 ± 0.0024 | vapor or sublimation pressure ([3]; 436.56 K): 13.32 ± 1 kPa; vapor or sublimation pressure ([3]; 469.52 K): 39.99 ± 1 kPa; vapor or sublimation pressure ([3]; 487.85 K): 66.66 ± 1 kPa; vapor or sublimation pressure ([3]; 501.05 K): 94.9 ± 1 kPa |
| Cc1ccccc1 [toluene] + CCCCCCCCO | 866.68 ± 4 kg/m3 | 857.39 ± 4 kg/m3 | 847.82 ± 4 kg/m3 | 838.42 ± 4 kg/m3 | 828.94 ± 4 kg/m3 | 1.49666 ± 0.0024 | 1.49193 ± 0.0024 | 1.48536 ± 0.0024 | 1.47968 ± 0.0024 | 1.47401 ± 0.0024 | – | – | – | – | – | – | – | – | – | – | mass density ([1]; 298.15 K): 861.74 ± 4 kg/m3; mass density ([1]; 308.15 K): 851.69 ± 4 kg/m3; mass density ([1]; 318.15 K): 842.88 ± 4 kg/m3; refractive index ([2]; 298.15 K): 1.49386 ± 0.0024; refractive index ([2]; 308.15 K): 1.48821 ± 0.0024; refractive index ([2]; 318.15 K): 1.48249 ± 0.0024 |
| Cc1ccccc1 [toluene] | – | – | – | – | – | – | – | – | – | – | 866.68 ± 4 kg/m3 | 857.39 ± 4 kg/m3 | 847.82 ± 4 kg/m3 | 838.42 ± 4 kg/m3 | 828.94 ± 4 kg/m3 | 1.49666 ± 0.0024 | 1.49193 ± 0.0024 | 1.48536 ± 0.0024 | 1.47968 ± 0.0024 | 1.47401 ± 0.0024 | mass density ([3]; 298.15 K): 861.74 ± 4 kg/m3; mass density ([3]; 308.15 K): 851.69 ± 4 kg/m3; mass density ([3]; 318.15 K): 842.88 ± 4 kg/m3; refractive index ([4]; 298.15 K): 1.49386 ± 0.0024; refractive index ([4]; 308.15 K): 1.48821 ± 0.0024; refractive index ([4]; 318.15 K): 1.48249 ± 0.0024 |
| CCCCCCCCO [octan-1-ol] | – | – | – | – | – | – | – | – | – | – | 825.57 ± 4 kg/m3 | 818.08 ± 4 kg/m3 | 811.09 ± 4 kg/m3 | 804.05 ± 4 kg/m3 | 796.88 ± 4 kg/m3 | 1.4295 ± 0.0024 | 1.42561 ± 0.0024 | 1.42169 ± 0.0024 | 1.41783 ± 0.0024 | 1.41407 ± 0.0024 | mass density ([3]; 298.15 K): 821.9 ± 4 kg/m3; mass density ([3]; 308.15 K): 814.31 ± 4 kg/m3; mass density ([3]; 318.15 K): 807.7 ± 4 kg/m3; refractive index ([4]; 298.15 K): 1.42748 ± 0.0024; refractive index ([4]; 308.15 K): 1.42369 ± 0.0024; refractive index ([4]; 318.15 K): 1.41973 ± 0.0024 |
